According to ChEMBL document CHEMBL5370531, “Design, synthesis and pharmacological evaluation of 2,3-dihydrobenzofuran IRAK4 inhibitors for the treatment of diffuse large B-cell lymphoma” (Eur J Med Chem, 2023):
Active and inactive are the calls of the source. The rule behind the calls is not given here.

Assays:
OCI-Ly10 [1] = assay: Synergistic antiproliferative activity against human OCILY10 cells harboring MYD88 L265P assessed as inhibition of cell growth at 100 nM incubated for 72 hrs in presence of BTK inhibitor, ibrutinib at 3.1 nM by CCK-8 assay (reference value: 21.36 %); format: functional
OCI-Ly10 [2] = assay: Cytotoxicity against human OCILY10 cells assessed as inhibition of cell proliferation incubated for 72 hrs by CCK-8 assay; format: functional, cell-based; conditions: OCI-Ly10, 72 h
[3] = biological target: Platelet-derived growth factor receptor alpha (Homo sapiens) (UniProt P16234); assay: Inhibition of PDGFR-alpha (unknown origin) at 100 nM incubated for 1 hr in presence of ATP by ELISA analysis
[4] = biological target: Platelet-derived growth factor receptor beta (Homo sapiens) (UniProt P09619); assay: Inhibition of PDGFR-beta (unknown origin) at 100 nM incubated for 1 hr in presence of ATP by ELISA analysis
[5] = biological target: Tyrosine-protein kinase ITK/TSK (Homo sapiens) (UniProt Q08881); assay: Inhibition of ITK (unknown origin) at 100 nM incubated for 1 hr in presence of ATP by ELISA analysis
[6] = biological target: Focal adhesion kinase 1 (Homo sapiens) (UniProt Q05397); assay: Inhibition of FAK (unknown origin) at 100 nM incubated for 1 hr in presence of ATP by ELISA analysis
[7] = biological target: Fibroblast growth factor receptor 1 (Homo sapiens) (UniProt P11362); assay: Inhibition of FGFR1 (unknown origin) at 100 nM incubated for 1 hr in presence of ATP by ELISA analysis
[8] = biological target: Insulin receptor (Homo sapiens) (UniProt P06213); assay: Inhibition of IR (unknown origin) at 100 nM incubated for 1 hr in presence of ATP by ELISA analysis
OCI-Ly10 [9] = assay: Induction of apoptosis in human OCILY10 cells assessed as early apoptotic cells at 1 uM incubated for 24 hrs by Annexin V-FITC/PI staining based flow cytometry (reference value: 10 %); format: functional
OCI-Ly10 [10] = assay: Induction of apoptosis in human OCILY10 cells assessed as late apoptotic cells at 0.1 uM incubated for 24 hrs by Annexin V-FITC/PI staining based flow cytometry (reference value: 3.71 %); format: functional
OCI-Ly10 [11] = assay: Induction of apoptosis in human OCILY10 cells assessed as late apoptotic cells at 0.2 uM incubated for 24 hrs by Annexin V-FITC/PI staining based flow cytometry (reference value: 3.71 %); format: functional
OCI-Ly10 [12] = assay: Induction of apoptosis in human OCILY10 cells assessed as early apoptotic cells at 0.1 uM incubated for 48 hrs by Annexin V-FITC/PI staining based flow cytometry (reference value: 5.4 %); format: functional
OCI-Ly10 [13] = assay: Induction of apoptosis in human OCILY10 cells assessed as late apoptotic cells at 0.1 uM incubated for 48 hrs by Annexin V-FITC/PI staining based flow cytometry (reference value: 3.54 %); format: functional
OCI-Ly10 [14] = assay: Induction of apoptosis in human OCILY10 cells at 0.5 uM incubated for 24 hrs by Annexin V-FITC/PI staining based flow cytometry; format: functional
OCI-Ly10 [15] = assay: Induction of apoptosis in human OCILY10 cells assessed as upregulation of PARP cleavage at 0.1 to 1 uM incubated for 24 hrs by immunoblotting analysis; format: functional, cell-based; conditions: dose 0.1-1 µM
OCI-Ly10 [16] = assay: Induction of apoptosis in human OCILY10 cells assessed as upregulation of caspase-3 cleavage at 0.1 to 1 uM incubated for 48 hrs by immunoblotting analysis; format: functional, cell-based; conditions: dose 0.1-1 µM
OCI-Ly10 [17] = assay: Synergistic antiproliferative activity against human OCILY10 cells harboring MYD88 L265P assessed as inhibition of cell growth at 200 nM incubated for 72 hrs in presence of BTK inhibitor, ibrutinib at 1.6 nM by CCK-8 assay (reference value: 26.07 %); format: functional
OCI-Ly10 [18] = assay: Synergistic antiproliferative activity against human OCILY10 cells harboring MYD88 L265P assessed as inhibition of cell growth at 400 nM incubated for 72 hrs in presence of BTK inhibitor, ibrutinib at 1.6 nM by CCK-8 assay (reference value: 34.46 %); format: functional
OCI-Ly10 [19] = assay: Synergistic antiproliferative activity against human OCILY10 cells harboring MYD88 L265P assessed as inhibition of cell growth at 1600 nM incubated for 72 hrs in presence of BTK inhibitor, ibrutinib at 1.6 nM by CCK-8 assay (reference value: 64.69 %); format: functional
OCI-Ly10 [20] = assay: Synergistic antiproliferative activity against human OCILY10 cells harboring MYD88 L265P assessed as inhibition of cell growth at 400 nM incubated for 72 hrs in presence of BTK inhibitor, ibrutinib at 3.1 nM by CCK-8 assay (reference value: 34.46 %); format: functional
OCI-Ly10 [21] = assay: Synergistic antiproliferative activity against human OCILY10 cells harboring MYD88 L265P assessed as inhibition of cell growth at 400 nM incubated for 72 hrs in presence of BTK inhibitor, ibrutinib at 6.2 nM by CCK-8 assay (reference value: 34.46 %); format: functional
OCI-Ly10 [22] = assay: Synergistic antiproliferative activity against human OCILY10 cells harboring MYD88 L265P assessed as inhibition of cell growth at 800 nM incubated for 72 hrs in presence of BTK inhibitor, ibrutinib at 6.2 nM by CCK-8 assay (reference value: 54.76 %); format: functional
OCI-Ly10 [23] = assay: Synergistic antiproliferative activity against human OCILY10 cells harboring MYD88 L265P assessed as inhibition of cell growth at 100 nM incubated for 72 hrs in presence of BTK inhibitor, ibrutinib at 12.5 nM by CCK-8 assay (reference value: 21.36 %); format: functional
OCI-Ly10 [24] = assay: Synergistic antiproliferative activity against human OCILY10 cells harboring MYD88 L265P assessed as inhibition of cell growth at 100 nM incubated for 72 hrs in presence of BTK inhibitor, ibrutinib at 25 nM by CCK-8 assay (reference value: 21.36 %); format: functional
OCI-Ly10 [25] = assay: Synergistic antiproliferative activity against human OCILY10 cells harboring MYD88 L265P assessed as inhibition of cell growth at 200 nM incubated for 72 hrs in presence of BTK inhibitor, ibrutinib at 25 nM by CCK-8 assay (reference value: 26.07 %); format: functional
OCI-Ly10 [26] = assay: Synergistic antiproliferative activity against human OCILY10 cells harboring MYD88 L265P assessed as inhibition of cell growth at 400 nM incubated for 72 hrs in presence of BTK inhibitor, ibrutinib at 25 nM by CCK-8 assay (reference value: 34.46 %); format: functional
OCI-Ly10 [27] = assay: Induction of apoptosis in human OCILY10 cells harboring MYD88 L265P assessed as upregulation of PARP cleavage at 0.1 uM in presence of BTK inhibitor, ibrutinib by immunoblotting analysis; format: functional, cell-based
OCI-Ly10 [28] = assay: Induction of apoptosis in human OCILY10 cells harboring MYD88 L265P assessed as upregulation of PARP cleavage at 0.2 uM in presence of BTK inhibitor, ibrutinib by immunoblotting analysis; format: functional, cell-based

Sequence of Tyrosine-protein kinase ITK/TSK (Homo sapiens) (Q08881 whole entry): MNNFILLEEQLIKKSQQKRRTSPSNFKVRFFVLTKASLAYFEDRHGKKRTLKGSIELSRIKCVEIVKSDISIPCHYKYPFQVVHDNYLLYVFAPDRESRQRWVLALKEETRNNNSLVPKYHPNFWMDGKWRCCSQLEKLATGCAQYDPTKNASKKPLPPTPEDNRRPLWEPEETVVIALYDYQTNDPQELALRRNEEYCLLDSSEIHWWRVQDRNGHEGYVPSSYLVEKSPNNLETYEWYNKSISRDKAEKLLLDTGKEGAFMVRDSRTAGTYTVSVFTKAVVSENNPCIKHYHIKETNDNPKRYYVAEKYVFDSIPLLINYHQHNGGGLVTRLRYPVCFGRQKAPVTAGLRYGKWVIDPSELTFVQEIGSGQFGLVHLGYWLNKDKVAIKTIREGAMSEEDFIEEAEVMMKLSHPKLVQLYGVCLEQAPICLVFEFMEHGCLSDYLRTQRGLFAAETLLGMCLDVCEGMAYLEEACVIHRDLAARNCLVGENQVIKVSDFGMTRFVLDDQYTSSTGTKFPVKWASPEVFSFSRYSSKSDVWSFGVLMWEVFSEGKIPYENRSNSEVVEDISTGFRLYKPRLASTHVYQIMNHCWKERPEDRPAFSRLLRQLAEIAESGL
Sequence of Platelet-derived growth factor receptor beta (Homo sapiens) (P09619 whole entry): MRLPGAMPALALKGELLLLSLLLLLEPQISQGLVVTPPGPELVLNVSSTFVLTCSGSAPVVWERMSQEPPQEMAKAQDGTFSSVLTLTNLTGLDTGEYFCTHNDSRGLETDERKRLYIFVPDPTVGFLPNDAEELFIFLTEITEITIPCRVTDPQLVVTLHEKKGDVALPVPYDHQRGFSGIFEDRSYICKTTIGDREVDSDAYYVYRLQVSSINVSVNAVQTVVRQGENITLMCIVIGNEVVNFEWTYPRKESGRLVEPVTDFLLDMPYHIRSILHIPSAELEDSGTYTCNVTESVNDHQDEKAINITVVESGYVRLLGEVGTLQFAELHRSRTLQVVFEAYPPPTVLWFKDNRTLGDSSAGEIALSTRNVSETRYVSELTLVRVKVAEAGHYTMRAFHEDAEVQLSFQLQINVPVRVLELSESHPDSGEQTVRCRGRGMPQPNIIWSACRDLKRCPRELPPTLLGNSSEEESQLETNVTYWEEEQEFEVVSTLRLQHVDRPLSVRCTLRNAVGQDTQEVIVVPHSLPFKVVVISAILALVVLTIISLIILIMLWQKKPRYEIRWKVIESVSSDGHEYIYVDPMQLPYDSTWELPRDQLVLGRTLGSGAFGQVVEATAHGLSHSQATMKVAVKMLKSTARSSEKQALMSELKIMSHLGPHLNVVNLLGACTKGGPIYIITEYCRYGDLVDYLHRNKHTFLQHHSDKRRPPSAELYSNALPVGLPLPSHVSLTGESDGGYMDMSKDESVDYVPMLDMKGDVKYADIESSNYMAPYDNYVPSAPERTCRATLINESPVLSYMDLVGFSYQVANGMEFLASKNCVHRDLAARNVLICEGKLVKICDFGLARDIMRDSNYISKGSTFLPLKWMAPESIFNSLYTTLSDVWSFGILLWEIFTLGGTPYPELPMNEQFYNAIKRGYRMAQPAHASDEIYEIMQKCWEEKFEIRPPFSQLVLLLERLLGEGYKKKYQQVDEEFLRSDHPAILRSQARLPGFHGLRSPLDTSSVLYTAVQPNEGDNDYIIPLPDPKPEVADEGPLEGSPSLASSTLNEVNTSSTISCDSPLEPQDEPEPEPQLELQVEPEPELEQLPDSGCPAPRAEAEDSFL
Sequence of Focal adhesion kinase 1 (Homo sapiens) (Q05397 2-1052 limits assumed): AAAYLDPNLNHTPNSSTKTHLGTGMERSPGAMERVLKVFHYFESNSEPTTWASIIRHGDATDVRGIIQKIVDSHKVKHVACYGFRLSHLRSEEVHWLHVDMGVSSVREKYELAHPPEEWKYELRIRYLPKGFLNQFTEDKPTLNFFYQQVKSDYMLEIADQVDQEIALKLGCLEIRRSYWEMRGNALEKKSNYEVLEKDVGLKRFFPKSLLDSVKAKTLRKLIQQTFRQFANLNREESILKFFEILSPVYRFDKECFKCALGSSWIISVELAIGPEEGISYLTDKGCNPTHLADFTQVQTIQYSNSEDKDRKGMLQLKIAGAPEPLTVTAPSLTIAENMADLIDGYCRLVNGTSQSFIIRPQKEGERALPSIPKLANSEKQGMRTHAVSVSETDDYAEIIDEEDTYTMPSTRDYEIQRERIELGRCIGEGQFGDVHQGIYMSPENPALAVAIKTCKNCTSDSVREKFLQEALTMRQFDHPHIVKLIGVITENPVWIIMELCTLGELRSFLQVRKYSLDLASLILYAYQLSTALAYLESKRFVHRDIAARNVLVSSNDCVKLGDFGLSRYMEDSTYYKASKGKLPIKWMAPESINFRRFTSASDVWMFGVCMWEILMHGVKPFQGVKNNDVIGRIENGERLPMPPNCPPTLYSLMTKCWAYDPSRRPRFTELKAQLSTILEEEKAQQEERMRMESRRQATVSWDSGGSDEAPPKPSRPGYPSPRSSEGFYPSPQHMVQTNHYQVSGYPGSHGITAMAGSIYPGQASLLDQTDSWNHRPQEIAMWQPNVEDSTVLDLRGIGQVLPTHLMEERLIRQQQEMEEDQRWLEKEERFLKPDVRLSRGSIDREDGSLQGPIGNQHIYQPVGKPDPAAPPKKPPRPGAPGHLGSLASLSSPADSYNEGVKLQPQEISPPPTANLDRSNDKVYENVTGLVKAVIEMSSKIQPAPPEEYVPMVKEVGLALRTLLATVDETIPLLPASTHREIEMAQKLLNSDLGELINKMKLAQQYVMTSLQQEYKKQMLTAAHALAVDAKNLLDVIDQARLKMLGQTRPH
Sequence of Fibroblast growth factor receptor 1 (Homo sapiens) (P11362 22-822 limits assumed): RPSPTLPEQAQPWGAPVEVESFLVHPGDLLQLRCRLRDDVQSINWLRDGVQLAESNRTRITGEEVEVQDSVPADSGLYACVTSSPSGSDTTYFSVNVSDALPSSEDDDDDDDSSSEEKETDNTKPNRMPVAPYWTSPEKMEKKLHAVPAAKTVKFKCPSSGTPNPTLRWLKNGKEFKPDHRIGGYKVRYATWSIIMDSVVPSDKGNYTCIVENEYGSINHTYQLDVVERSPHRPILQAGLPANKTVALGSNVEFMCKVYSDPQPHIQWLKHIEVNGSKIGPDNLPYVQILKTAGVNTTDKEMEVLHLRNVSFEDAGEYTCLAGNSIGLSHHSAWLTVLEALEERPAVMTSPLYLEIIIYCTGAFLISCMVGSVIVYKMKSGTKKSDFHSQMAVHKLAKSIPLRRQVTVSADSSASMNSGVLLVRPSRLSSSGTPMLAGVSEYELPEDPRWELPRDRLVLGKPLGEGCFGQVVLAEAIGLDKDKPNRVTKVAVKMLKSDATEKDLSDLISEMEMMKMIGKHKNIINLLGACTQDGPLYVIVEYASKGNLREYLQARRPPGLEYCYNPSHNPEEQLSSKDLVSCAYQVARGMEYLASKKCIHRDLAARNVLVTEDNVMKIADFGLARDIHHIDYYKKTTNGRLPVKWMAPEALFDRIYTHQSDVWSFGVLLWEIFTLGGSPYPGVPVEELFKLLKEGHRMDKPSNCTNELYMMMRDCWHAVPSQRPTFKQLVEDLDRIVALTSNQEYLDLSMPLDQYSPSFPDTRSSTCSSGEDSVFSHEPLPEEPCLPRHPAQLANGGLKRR
Sequence of Insulin receptor (Homo sapiens) (P06213 28-758 limits assumed): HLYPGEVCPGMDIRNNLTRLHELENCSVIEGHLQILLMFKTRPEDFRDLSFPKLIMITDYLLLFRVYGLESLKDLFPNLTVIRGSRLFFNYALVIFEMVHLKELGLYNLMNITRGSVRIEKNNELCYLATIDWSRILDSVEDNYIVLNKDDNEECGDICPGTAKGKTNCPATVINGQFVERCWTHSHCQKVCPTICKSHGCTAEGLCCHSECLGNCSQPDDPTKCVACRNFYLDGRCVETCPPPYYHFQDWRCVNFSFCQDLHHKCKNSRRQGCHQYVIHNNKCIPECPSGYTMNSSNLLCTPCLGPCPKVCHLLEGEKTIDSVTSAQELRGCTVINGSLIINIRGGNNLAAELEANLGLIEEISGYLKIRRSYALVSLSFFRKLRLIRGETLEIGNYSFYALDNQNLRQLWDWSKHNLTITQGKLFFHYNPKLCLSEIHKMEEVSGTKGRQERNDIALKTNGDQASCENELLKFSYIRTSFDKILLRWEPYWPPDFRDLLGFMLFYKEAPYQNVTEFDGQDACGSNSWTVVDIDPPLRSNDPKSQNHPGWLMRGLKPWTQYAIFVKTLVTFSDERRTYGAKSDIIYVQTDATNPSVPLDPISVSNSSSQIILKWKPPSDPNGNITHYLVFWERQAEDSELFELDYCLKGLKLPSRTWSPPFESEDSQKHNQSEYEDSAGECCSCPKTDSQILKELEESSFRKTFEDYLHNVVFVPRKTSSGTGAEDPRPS
Sequence of Insulin receptor (Homo sapiens) (P06213 763-1382 limits assumed): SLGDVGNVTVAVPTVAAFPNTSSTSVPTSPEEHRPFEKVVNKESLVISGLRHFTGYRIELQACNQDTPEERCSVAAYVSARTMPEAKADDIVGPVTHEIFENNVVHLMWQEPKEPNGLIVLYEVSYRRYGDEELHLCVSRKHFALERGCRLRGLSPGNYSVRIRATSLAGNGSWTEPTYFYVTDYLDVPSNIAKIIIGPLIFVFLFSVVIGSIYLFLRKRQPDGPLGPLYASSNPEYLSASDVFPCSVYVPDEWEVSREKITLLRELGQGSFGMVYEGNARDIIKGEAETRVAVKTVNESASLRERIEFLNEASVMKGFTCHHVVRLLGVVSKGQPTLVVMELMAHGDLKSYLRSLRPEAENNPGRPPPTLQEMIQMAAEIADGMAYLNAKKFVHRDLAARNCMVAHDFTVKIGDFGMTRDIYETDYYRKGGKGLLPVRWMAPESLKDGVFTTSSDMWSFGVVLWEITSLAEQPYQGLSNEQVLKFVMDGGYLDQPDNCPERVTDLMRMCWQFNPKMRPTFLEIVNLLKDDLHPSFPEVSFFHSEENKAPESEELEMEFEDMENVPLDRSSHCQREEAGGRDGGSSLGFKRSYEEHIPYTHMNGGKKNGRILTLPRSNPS

## Cn1cc(-c2cc3c(cc2NC(=O)c2coc(-c4ccnc(N)c4)n2)CC(C)(C)O3)cn1
OCI-Ly10 [1]
  inhibition at 0.1 µM: 21.8%
OCI-Ly10 [2]
  IC50: 248 nM
[3]
  inhibition: inactive
[4]
  inhibition: inactive
[5]
  inhibition: inactive
[6]
  inhibition: inactive
[7]
  inhibition: inactive
[8]
  inhibition: inactive
OCI-Ly10 [9]
  Activity: 36.4%
OCI-Ly10 [10]
  Activity: 7.94%
OCI-Ly10 [11]
  Activity: 11.8%
OCI-Ly10 [12]
  Activity: 12.9%
OCI-Ly10 [13]
  Activity: 7.93%
OCI-Ly10 [14]
  Activity: 48.3%
OCI-Ly10 [15]
  Activity: Active
OCI-Ly10 [16]
  Activity: Active
OCI-Ly10 [17]
  inhibition at 0.2 µM: 26.9%
OCI-Ly10 [18]
  inhibition at 0.4 µM: 37.4%
OCI-Ly10 [19]
  inhibition at 1.6 µM: 70.6%
OCI-Ly10 [20]
  inhibition at 0.4 µM: 42.3%
OCI-Ly10 [21]
  inhibition at 0.4 µM: 67.2%
OCI-Ly10 [22]
  inhibition at 0.8 µM: 83.3%
OCI-Ly10 [23]
  inhibition at 0.1 µM: 62.1%
OCI-Ly10 [24]
  inhibition at 0.1 µM: 72.2%
OCI-Ly10 [25]
  inhibition at 0.2 µM: 75.4%
OCI-Ly10 [26]
  inhibition at 0.4 µM: 83.2%
OCI-Ly10 [27]
  Activity: Active
OCI-Ly10 [28]
  Activity: Active
